Measurements taken from patent US20070213402A1, “Compounds which interact with the thyroid hormone receptor for the treatment of fibrotic disease” (priority 1998, published 2007).

Columns and labels:
collagenase I promoter = test: Experiment 1: collagenase I promoter (-73/+63)-luciferase in CV1 cells transfected with pSG5ARF (androgen receptor); assay type: cell-based, African Green Monkey; conditions: for % control (AR): Blank = 100
Description: (§1) Two plasmid constructs were introduced by standard calcium phosphate precipitation of DNA followed by glycerol shock (Ausubel F M, Brent R, Kingston D D, Moore J G et al Current protocols in molecular biology 1994 Greene Publishing Associates/Wiley-Interscience, New York, N.Y.) using a transformed African Green Monkey kidney cell line (CV1) (Schneikert J, Peterziel H, Defossez P-A, Klocker H, de Launoit Y and Cato A C B Androgen receptor-Ets protein interaction is a novel mechanism for steroid hormone-mediated down-modulation of matrix metalloproteinase expression, Journal of Biological Chemistry. Vol 271(39) (pp 23907-23913), 1996).
Accordingly, the following two plasmids were included into CV1 cells described above — • (a) Either of GR1 or pSG5ARF containing glucocorticoid or androgen receptor (AR) respectively, both at 2 ug per 5×10^5 cells, driven by the Rous sarcoma virus promoter, and • (b) a plasmid containing the −73/+63 portion of the collagenase I promoter linked to luciferase gene at 8 ug per 5×10^5 cells.
CPII was compound II above, clobuzarit.

pro-MMP-1 = test: Experiment 5: immunoblot of pro-MMP-1 in rheumatoid fibroblasts; assay type: cell-based, human; conditions: 36 hours, 10 ng/ml TPA plus 5×10^-7M substance, compared to TPA alone (lane 5)
Procedure: Rheumatoid fibroblasts were cultured from synovium obtained from the knee joint of a patient with rheumatoid arthritis. Cells were cultured in monolayer with DMEM tissue culture medium (Gibco) with the inclusion of 5% v/v charcoal stripped serum in 75 cm^2 flasks. The cells were treated for 36 hours with the addition of 10 ng/ml TPA (phorbol ester) plus 5×10^−7M thyroid hormone, Compound II or Compound III. TPA and drugs were added at time zero and at 30 hours, the TPA addition ensured phosphorylation of c-jun.
After 36 hours, cells were lysed in phosphate buffered saline (PBS) containing protease inhibitors and 0.1% Triton-X-100, and then boiled for 5 minutes in non-reducing gel loading buffer. Samples of cell lysate corresponding to equal cell number were loaded onto a 12.5% SDS polyacrylamide gel, and electrophoresis using a Bio-Rad™, (Bio-Rad Laboratories, California USA) Mini Protean II cell was performed at approximately 100V for one hour.
Transfer of proteins to nitrocellulose membrane was performed using a Bio-Rad Mini Trans-Blot transfer cell.
Immunoblotting was performed using polyclonal rabbit anti-human phosphorylation specific (set 73) c-jun (cat. No 06659, Upstate Biotechnology), or MMP-1 (cat. No. RDI-MMP1Habr, Research Diagnostics) antibodies diluted 1:1000 in Tris buffered saline+3% fat free milk powder. […]

androgen receptor = target: T1, androgen receptor (Homo sapiens, UniProt P10275); test: Experiment 2: PGL3MMTV-luciferase transactivation in CV1 cells with androgen receptor (AR); assay type: cell-based; conditions: for % control (AR): Blank = 100
T1 construct: expressed in transfected cells; host or cells: CV1 (transformed African Green Monkey kidney cell line)
T1 sequence (P10275 1-920): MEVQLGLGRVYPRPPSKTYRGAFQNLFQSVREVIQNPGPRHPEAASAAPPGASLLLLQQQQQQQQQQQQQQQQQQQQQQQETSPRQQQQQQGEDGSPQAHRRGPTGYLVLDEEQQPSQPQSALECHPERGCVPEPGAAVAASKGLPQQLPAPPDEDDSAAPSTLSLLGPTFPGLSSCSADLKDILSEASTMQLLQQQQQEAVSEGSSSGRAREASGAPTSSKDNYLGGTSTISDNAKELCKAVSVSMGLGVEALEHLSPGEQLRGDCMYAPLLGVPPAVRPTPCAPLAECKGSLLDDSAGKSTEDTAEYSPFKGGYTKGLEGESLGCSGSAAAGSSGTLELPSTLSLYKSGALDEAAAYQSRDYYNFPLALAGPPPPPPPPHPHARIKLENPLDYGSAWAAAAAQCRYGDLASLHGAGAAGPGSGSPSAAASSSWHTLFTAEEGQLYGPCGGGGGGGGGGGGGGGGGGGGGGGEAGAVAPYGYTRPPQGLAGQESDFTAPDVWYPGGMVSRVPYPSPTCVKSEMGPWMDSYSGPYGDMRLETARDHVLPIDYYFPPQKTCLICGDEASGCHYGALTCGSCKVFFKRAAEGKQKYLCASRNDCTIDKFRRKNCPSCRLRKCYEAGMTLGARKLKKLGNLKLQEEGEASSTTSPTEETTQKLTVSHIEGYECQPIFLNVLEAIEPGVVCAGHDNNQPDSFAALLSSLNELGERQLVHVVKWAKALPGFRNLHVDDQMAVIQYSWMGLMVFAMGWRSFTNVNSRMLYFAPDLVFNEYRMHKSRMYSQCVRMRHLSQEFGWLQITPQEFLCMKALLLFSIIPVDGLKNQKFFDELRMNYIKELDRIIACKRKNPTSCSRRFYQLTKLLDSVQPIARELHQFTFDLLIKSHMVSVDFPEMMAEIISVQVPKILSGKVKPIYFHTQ
Description: as §1
This experiment was intended to investigate the activation of androgen and corticosteroid receptors by compound I.
CPII was compound II above, clobuzarit, which was used at 10^−7M.

NFκB = test: Experiment 3: NFκB-driven 3-EnhTK-Luc reporter in CV1 cells with GR1; assay type: cell-based, African Green Monkey; conditions: for % Control: Blank = 100
Description: as §1
This experiment was intended to show the effect of compounds I on a mediator of the immune response, nuclear factor—κB (NF-κB).
The following two plasmids were included into CV1 cells described above— • (a) GR1 as described above at 2 ug per 5×10^5 cells, and • (b) a plasmid designated 3-EnhTK-Luc (at 0.5 ug per 5×10^5 cells) which contains a transcription site that is activated by NFκB.
The blank represented the inclusion of these two plasmids alone; the relatively high value was caused by (i) the high level of serum in the culture, and (ii) the associated stress that the cells underwent during the […]—both of which upregulate NFκB. There was also a related relatively low activation of TNF (at 4 ng/ml) above a serum containing blank in the experiment. TNF was tumour necrosis factor alpha.

[1] = substance added with TPA 75 ng/ml, DHT 10^-7M
[2] = CPII 10^-7M together with DHT 10^-7M
[3] = substance added alone, TNF 4 ng/ml
[4] = substance added with TNF 4 ng/ml

activation of androgen receptor-driven transcription, in words (androgen receptor; 10^-7M, compared with DHT): negligible activity | Raw counts (AR) (androgen receptor; [2]): 1232241 counts | % control (AR) (androgen receptor; [2]): 26574% | Raw counts (AR) (androgen receptor; substance alone at 10^-7M): 33130 counts | % control (AR) (androgen receptor; substance alone at 10^-7M): 714%
SMILES: CC(C)(OCc1ccc(-c2ccc(Cl)cc2)cc1)C(=O)O [Compound II, 1-[4-(4-chlorophenyl)benzyloxy]-1-methylpropionic acid]
% control (AR) (collagenase I promoter; substance added alone): 51% | Raw counts (AR) (collagenase I promoter; substance added alone, TPA 75 ng/ml): 1374 counts | Raw counts (AR) (collagenase I promoter; [1]): 5986 counts | % control (AR) (collagenase I promoter; [1]): 224% | collagenase I activation, in words (AR) (collagenase I promoter; TPA-stimulated, androgen receptor): able to down regulate collagenase I activation | amount of pro-MMP-1, band intensity (pro-MMP-1): lower intensity | Raw Counts (NFκB; [3]): 75812 counts | % Control (NFκB; [3]): 127% | Raw Counts (NFκB; [4]): 135886 counts | % Control (NFκB; [4]): 228% | upregulation of transcriptional activity by NFκB, in words (NFκB; versus background value): not able to upregulate transcriptional activity by NFκB | inhibitory effect on NFκB transcription, in words (NFκB; with TNF): lack of inhibitory effect
